Measured values taken from patent EP0221541A2, “Quinolonecarboxylic acid derivatives and their preparation” (KYORIN PHARMACEUTICAL CO., LTD., priority 1985, dated 1987).
Values after ≈ are worked out from the molar mass of the structure shown. Counter-ions that a name gives are not always drawn. Like-named read-outs stand apart in the source and are kept apart here.

Experiments:
Format in all cases: cell-based
[1] = system: Proteus vulgaris IFO 3167; experiment: MIC, antibacterial spectrum (aerobic bacteria); details: IFO3167; Proteus vulgaris IFO 3167, Gram -, 10^6 cells/ml, aerobic; read-out: MIC
S. pyogenes IID 692 = experiment: MIC, antibacterial spectrum (aerobic bacteria); details: Streptococcus pyogenes, IID692; S. pyogenes IID 692, Gram +, 10^6 cells/ml, aerobic; read-out: MIC
[2] = system: Citrobacter freundii IID 976; experiment: MIC, antibacterial spectrum (aerobic bacteria); details: IID976; Citrobacter freundii IID 976, Gram -, 10^6 cells/ml, aerobic; read-out: MIC
[3] = system: Alcaligenes faecalis 0114002; experiment: MIC, antibacterial spectrum (aerobic bacteria); details: Alcaligenes faecalis 0114002, Gram -, 10^6 cells/ml
[4] = system: Bacteroides fragilis GM 7000; experiment: MIC, antibacterial spectrum (anaerobic bacteria); details: GM7000; Bacteroides fragilis GM 7000, Gram -, 10^6 cells/ml, anaerobic; read-out: MIC
[5] = system: Serratia marcescens IID 618; experiment: MIC, antibacterial spectrum (aerobic bacteria); details: IID618
[6] = system: Escherichia coli NIHJ JC-2; experiment: MIC, antibacterial spectrum (aerobic bacteria); details: NIHJJC2, Escherichia coli NIHJ JC-2, Gram -, 10^6 cells/ml
[7] = system: B. thetaiotaomicron (0661); experiment: MIC, antibacterial spectrum (anaerobic bacteria); details: Bacteroides thetaiotaomicron; B. thetaiotaomicron (0661), Gram -, 10^6 cells/ml, anaerobic; read-out: MIC
P. aeruginosa IFO 12689 = experiment: MIC, antibacterial spectrum (aerobic bacteria); details: Pseudomonas aeruginosa, IFO12689; P. aeruginosa IFO 12689, Gram -, 10^6 cells/ml, aerobic; read-out: MIC
F. varium KYA 8501 = experiment: MIC, antibacterial spectrum (anaerobic bacteria); details: Fusobacterium varium, KYA8501, F. varium KYA 8501, Gram -, 10^6 cells/ml
[8] = system: Morganella morganii IID 602; experiment: MIC, antibacterial spectrum (aerobic bacteria); details: IID602, Morganella morganii IID 602, Gram -, 10^6 cells/ml
[9] = system: Staphylococcus aureus 209 P; experiment: MIC, antibacterial spectrum (aerobic bacteria); details: Staphylococcus aureus 209 P, Gram +, 10^6 cells/ml, aerobic; read-out: MIC
[10] = system: Veillonella parvula KYA 10790; experiment: MIC, antibacterial spectrum (anaerobic bacteria); details: KYA10790, Veillonella parvula KYA 10790, Gram -, 10^6 cells/ml
[11] = system: Salmonella enteritidis IID 604; experiment: MIC, antibacterial spectrum (aerobic bacteria); details: Salmonella enterica; Salmonella enteritidis IID 604, Gram -, 10^6 cells/ml, aerobic; read-out: MIC
S. marcescens GN 7577 = experiment: MIC, antibacterial spectrum (aerobic bacteria); details: Serratia marcescens, GN7577; S. marcescens GN 7577, Gram -, 10^6 cells/ml, aerobic; read-out: MIC
Shigella sonnei IID 969 = experiment: MIC, antibacterial spectrum (aerobic bacteria); details: IID969, Shigella sonnei IID 969, Gram -, 10^6 cells/ml
Description: Minimal inhibitory concentrations (MICs) were determined in accordance with the method recommended by Japan Society of Chemotherapy.

[12] = system: Streptococcus pneumoniae IID 552; experiment: MIC, antibacterial spectrum (aerobic bacteria); details: IID552; Streptococcus pneumoniae IID 552, Gram +, 10^6 cells/ml, aerobic; read-out: MIC
S. epidermidis IID 866 = experiment: MIC, antibacterial spectrum (aerobic bacteria); details: Staphylococcus epidermidis, IID866; S. epidermidis IID 866, Gram +, 10^6 cells/ml, aerobic; read-out: MIC
E. coli ATCC 10536 = experiment: MIC, antibacterial spectrum (aerobic bacteria); details: Escherichia coli, ATCC10536; E. coli ATCC 10536, Gram -, 10^6 cells/ml, aerobic; read-out: MIC
B. fragilis 0558 = experiment: MIC, antibacterial spectrum (anaerobic bacteria); details: Bacteroides fragilis; B. fragilis 0558, Gram -, 10^6 cells/ml, anaerobic; read-out: MIC
[13] = system: Pseudomonas aeruginosa V-1; experiment: MIC, antibacterial spectrum (aerobic bacteria); details: V1
E. faecalis IID 682 = experiment: MIC, antibacterial spectrum (aerobic bacteria); details: Enterococcus faecalis, IID682; E. faecalis IID 682, Gram +, 10^6 cells/ml, aerobic; read-out: MIC
P. mirabilis IID 994 = experiment: MIC, antibacterial spectrum (aerobic bacteria); details: Proteus mirabilis, IID994; P. mirabilis IID 994, Gram -, 10^6 cells/ml, aerobic; read-out: MIC
[14] = system: S. pyogenes IID 689 (S-8); experiment: MIC, antibacterial spectrum (aerobic bacteria); details: Streptococcus pyogenes, IID689; S. pyogenes IID 689 (S-8), Gram +, 10^6 cells/ml, aerobic; read-out: MIC
[15] = system: Peptostreptococcus anaerobius KYA 27337; experiment: MIC, antibacterial spectrum (anaerobic bacteria); details: KYA27337; Peptostreptococcus anaerobius KYA 27337, Gram +, 10^6 cells/ml, anaerobic; read-out: MIC
[16] = system: Peptococcus magnus KY 017; experiment: MIC, antibacterial spectrum (anaerobic bacteria); details: Finegoldia magna, KY017; Peptococcus magnus KY 017, Gram +, 10^6 cells/ml, anaerobic; read-out: MIC
S. aureus Smith = experiment: MIC, antibacterial spectrum (aerobic bacteria); details: Staphylococcus aureus; S. aureus Smith, Gram +, 10^6 cells/ml, aerobic; read-out: MIC
[17] = system: Yersinia enterocolitica IID 981; experiment: MIC, antibacterial spectrum (aerobic bacteria); details: IID981; Yersinia enterocolitica IID 981, Gram -, 10^6 cells/ml, aerobic; read-out: MIC
[18] = system: Klebsiella pneumoniae KY(GN)6445; experiment: MIC, antibacterial spectrum (aerobic bacteria); details: Klebsiella pneumoniae KY(GN)6445, Gram -, 10^6 cells/ml, aerobic; read-out: MIC
[19] = Serratia marcescens IID 618, Gram -, 10^6 cells/ml, aerobic, read-out: MIC
[20] = Pseudomonas aeruginosa V-1, Gram -, 10^6 cells/ml, aerobic, read-out: MIC

SMILES	MIC [1] [µg/mL]	MIC (S. pyogenes IID 692) [µg/mL]	MIC [2] [µg/mL]	MIC [3] [µg/mL]	MIC [4] [µg/mL]	MIC [6] [µg/mL]	MIC [7] [µg/mL]	MIC (P. aeruginosa IFO 12689) [µg/mL]	MIC (F. varium KYA 8501) [µg/mL]	MIC [8] [µg/mL]	MIC [9] [µg/mL]	MIC [10] [µg/mL]	MIC [11] [µg/mL]	MIC (S. marcescens GN 7577) [µg/mL]	MIC (Shigella sonnei IID 969) [µg/mL]	MIC [12] [µg/mL]	MIC (S. epidermidis IID 866) [µg/mL]	MIC (E. coli ATCC 10536) [µg/mL]	MIC (B. fragilis 0558) [µg/mL]	MIC (E. faecalis IID 682) [µg/mL]	further results
O=C(O)c1cn(C2CC2)c2c(Cl)c(N3CCC(CNCCO)C3)c(F)cc2c1=O (stereo not drawn) [Exp. 3, 8-Chloro-1-cyclopropyl-6-fluoro-1,4-dihydro-7-(3-(2-hydroxyethylaminomethyl)-1-pyrrolidinyl]-4-oxo-3-quinolinecarboxylic acid]	0.025 (≈ 0.059 µM)	0.0125 (≈ 0.0295 µM)	0.05 (≈ 0.118 µM)	0.39 (≈ 0.92 µM)	0.39 (≈ 0.92 µM)	0.0125 (≈ 0.0295 µM)	1.56 (≈ 3.68 µM)	1.56 (≈ 3.68 µM)	0.39 (≈ 0.92 µM)	0.39 (≈ 0.92 µM)	0.0125 (≈ 0.0295 µM)	0.1 (≈ 0.236 µM)	0.1 (≈ 0.236 µM)	1.56 (≈ 3.68 µM)	0.05 (≈ 0.118 µM)	0.0125 (≈ 0.0295 µM)	0.0125 (≈ 0.0295 µM)	0.025 (≈ 0.059 µM)	0.2 (≈ 0.472 µM)	0.1 (≈ 0.236 µM)	MIC [5, 19]: 0.2 µg/mL (≈ 0.472 µM); MIC [13, 20]: 0.2 µg/mL (≈ 0.472 µM); MIC (P. mirabilis IID 994): 0.05 µg/mL (≈ 0.118 µM); MIC [14]: 0.0125 µg/mL (≈ 0.0295 µM); MIC [15]: 0.025 µg/mL (≈ 0.059 µM); MIC [16]: 0.05 µg/mL (≈ 0.118 µM); MIC (S. aureus Smith): 0.0125 µg/mL (≈ 0.0295 µM); MIC [17]: 0.1 µg/mL (≈ 0.236 µM); MIC [18]: 0.05 µg/mL (≈ 0.118 µM)
O=C(O)c1cn(C2CC2)c2cc(N3CCC(CNCCO)C3)c(F)cc2c1=O (stereo not drawn) [Exp. 2, l-Cyclopropyl-6-fluoro-l,4-dihydro-7-[3-(2-hydroxyethylaminomethyl)-l-pyrrolidinyl]-4-oxo-3-quinolinecarboxylic acid hydrochloride]	0.2	0.1	0.39	6.25	100	0.1	> 100	6.25	25	3.13	0.2	3.13	0.39	25	0.1	0.1	0.1	0.1	50	0.78	MIC ([5]; Serratia marcescens): 1.56 µg/mL; MIC ([13]; Pseudomonas aeruginosa): 1.56 µg/mL; MIC (P. mirabilis IID 994): 0.39 µg/mL; MIC [14]: 0.1 µg/mL; MIC [15]: 0.78 µg/mL; MIC [16]: 0.2 µg/mL; MIC (S. aureus Smith): 0.39 µg/mL; MIC [17]: 0.78 µg/mL; MIC [18]: 0.39 µg/mL
O=C(O)c1cn(C2CC2)c2c(F)c(N3CCC(CNCCO)C3)c(F)cc2c1=O (stereo not drawn) [Exp. 1, 1-Cyclopropyl-6,8-difluoro-1,4-dihydro-7-[3-(2-hydroxyethylaminomethyl)-1-pyrrolidinyl]-4-oxo-3-quinolinecarboxylic acid]	0.05 (≈ 0.123 µM)	0.05 (≈ 0.123 µM)	0.05 (≈ 0.123 µM)	0.78 (≈ 1.91 µM)	1.56 (≈ 3.83 µM)	0.025 (≈ 0.0614 µM)	3.13 (≈ 7.68 µM)	1.56 (≈ 3.83 µM)	0.78 (≈ 1.91 µM)	0.39 (≈ 0.957 µM)	0.05 (≈ 0.123 µM)	0.39 (≈ 0.957 µM)	0.1 (≈ 0.245 µM)	3.13 (≈ 7.68 µM)	0.05 (≈ 0.123 µM)	0.05 (≈ 0.123 µM)	0.025 (≈ 0.0614 µM)	0.05 (≈ 0.123 µM)	0.78 (≈ 1.91 µM)	0.1 (≈ 0.245 µM)	MIC [5, 19]: 0.39 µg/mL (≈ 0.957 µM); MIC [13, 20]: 0.78 µg/mL (≈ 1.91 µM); MIC (P. mirabilis IID 994): 0.05 µg/mL (≈ 0.123 µM); MIC [14]: 0.025 µg/mL (≈ 0.0614 µM); MIC [15]: ≤ 0.05 µg/mL; MIC [16]: ≤ 0.05 µg/mL; MIC (S. aureus Smith): 0.05 µg/mL (≈ 0.123 µM); MIC [17]: 0.2 µg/mL (≈ 0.491 µM); MIC [18]: 0.05 µg/mL (≈ 0.123 µM)
